This passage reports Activity and IC50 results from ChEMBL document CHEMBL5325505, “Discovery of chiral 1,4-diarylazetidin-2-one-based hydroxamic acid derivatives as novel tubulin polymerization inhibitors with histone deacetylase inhibitory activity” (Bioorg Med Chem, 2023).

Series [1] concerns BE(2)-C. The series can be described thus: Induction of apoptosis in human BE2C cells assessed as late apoptotic cells at 50 nM incubated for 48 hrs by annexin V-FITC/PI staining based flow cytometry (reference value: 9.99 %). Format: functional.
The next series concerns the target T1, Histone deacetylase 8 (Homo sapiens, UniProt Q9BY41).
T1 sequence (Q9BY41 whole entry): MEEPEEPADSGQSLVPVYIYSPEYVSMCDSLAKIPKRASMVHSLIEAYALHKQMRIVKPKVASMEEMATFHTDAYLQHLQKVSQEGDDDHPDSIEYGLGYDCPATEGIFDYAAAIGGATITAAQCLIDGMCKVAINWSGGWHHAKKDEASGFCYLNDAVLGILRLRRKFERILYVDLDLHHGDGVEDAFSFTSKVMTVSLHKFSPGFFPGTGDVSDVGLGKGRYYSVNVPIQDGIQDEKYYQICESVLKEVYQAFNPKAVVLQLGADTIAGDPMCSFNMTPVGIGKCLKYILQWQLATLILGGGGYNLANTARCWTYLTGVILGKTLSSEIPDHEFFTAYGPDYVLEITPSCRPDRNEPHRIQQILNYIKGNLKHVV
The series can be described thus: Inhibition of HDAC8 (unknown origin).

The nature of series [2]: Toxicity in nude mouse xenografted with human BE2C cells assessed as body weight loss at 25 mg/kg, ip treated for every 3 days. The settings on record: in vivo, 72 h, time 3 day. Format: organism-based. Background: Xenograft models place foreign cells or tissue in a host animal.
Series [3] deals with BE(2)-C. Briefly: Induction of apoptosis in human BE2C cells assessed as necrotic cells at 50 nM incubated for 48 hrs by annexin V-FITC/PI staining based flow cytometry (reference value: 3.57 %). Type of series: functional.
The subject of series [4] is BE(2)-C. The series can be described thus: Upregulation of acetylated H3 expression in human BE2C cells by Western blot analysis. Format: functional, cell-based. The settings on record: dose 25-100 nM. (A western blot detects proteins with antibodies after separation by electrophoresis.)
In series [5] the target is T2, Protein deacetylase HDAC6 (Homo sapiens, UniProt Q9UBN7).
T2 sequence (Q9UBN7 whole entry): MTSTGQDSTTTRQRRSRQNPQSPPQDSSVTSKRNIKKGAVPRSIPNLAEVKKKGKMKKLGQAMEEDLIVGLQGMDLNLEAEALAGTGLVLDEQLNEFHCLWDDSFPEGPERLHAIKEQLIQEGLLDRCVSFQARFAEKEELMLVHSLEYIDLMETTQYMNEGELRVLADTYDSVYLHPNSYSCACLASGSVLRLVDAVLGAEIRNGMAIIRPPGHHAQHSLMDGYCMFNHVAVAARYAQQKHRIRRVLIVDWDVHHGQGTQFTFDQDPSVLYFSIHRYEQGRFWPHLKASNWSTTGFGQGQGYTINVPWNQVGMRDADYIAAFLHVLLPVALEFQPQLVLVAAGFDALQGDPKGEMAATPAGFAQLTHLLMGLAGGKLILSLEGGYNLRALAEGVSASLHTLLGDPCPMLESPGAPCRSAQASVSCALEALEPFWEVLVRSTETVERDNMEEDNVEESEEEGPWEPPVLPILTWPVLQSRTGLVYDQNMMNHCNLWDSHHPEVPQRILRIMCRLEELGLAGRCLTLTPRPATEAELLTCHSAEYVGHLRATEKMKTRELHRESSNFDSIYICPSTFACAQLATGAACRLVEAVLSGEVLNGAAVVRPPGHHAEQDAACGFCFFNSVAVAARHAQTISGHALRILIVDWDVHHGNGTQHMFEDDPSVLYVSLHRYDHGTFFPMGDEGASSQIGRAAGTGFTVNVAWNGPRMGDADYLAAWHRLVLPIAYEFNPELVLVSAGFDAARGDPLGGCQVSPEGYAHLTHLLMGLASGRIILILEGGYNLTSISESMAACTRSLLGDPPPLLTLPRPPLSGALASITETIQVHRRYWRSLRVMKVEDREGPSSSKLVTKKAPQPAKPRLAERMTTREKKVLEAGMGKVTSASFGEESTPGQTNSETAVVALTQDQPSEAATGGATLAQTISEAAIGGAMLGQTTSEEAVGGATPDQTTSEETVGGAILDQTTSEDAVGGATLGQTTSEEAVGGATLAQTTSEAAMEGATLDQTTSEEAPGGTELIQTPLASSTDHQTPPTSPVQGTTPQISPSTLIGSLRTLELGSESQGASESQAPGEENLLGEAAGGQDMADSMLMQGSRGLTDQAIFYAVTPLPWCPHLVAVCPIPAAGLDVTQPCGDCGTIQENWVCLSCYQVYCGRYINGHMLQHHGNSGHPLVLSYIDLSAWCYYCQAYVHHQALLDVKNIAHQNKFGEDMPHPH
Briefly: Inhibition of HDAC6 (unknown origin).

Series [6] concerns BE(2)-C. The series can be described thus: Upregulation of cleaved PARP-1 expression in human BE2C cells at 25 to 100 nM by Western blot analysis. Type of series: functional, cell-based. The settings on record: dose 25-100 nM.

The source made the active and inactive calls. The calls are words filed in the database; no cut-off is given here.

One may read the IC50 as the point on the concentration scale where inhibition reaches its midpoint. Low values mean greater potency, high ones weaker potency. Take `COc1ccc([C@H]2[C@H](COC(=O)c3ccc(C(=O)NO)cc3)C(=O)N2c2cc(OC)c(OC)c(OC)c2)cc1O`: the Activity is 29.09% in the series on BE(2)-C [1], “Non-Toxic” in series [2], 8.53% in the series on BE(2)-C [3] and “Dose-Dependent Effect” with BE(2)-C [4]. Also, the IC50 amounted to 177 nM against Histone deacetylase 8 and 1040 nM in series [5]. Also, in the series on BE(2)-C [6], the result was Active.
